Patent publication US11806352B2, “Theobromine for increasing HDL-cholesterol” (UPFIELD EUROPE B.V., priority 2010, dated 2023)
“And” between values parts separate entries of the source, which are not always exact repeats. Identical values can stand only once.

Columns and labels:
[1] = tested on: healthy males and females; test: Example 2: randomized placebo-controlled 2 by 2 factorial parallel study, dairy drinks, blood lipid profile; format: in vivo, humans
Experimental: In a randomized controlled intervention study with 153 healthy males and females the effect of drinks containing cocoa, added theobromine or a combination of cocoa and added theobromine was assessed on HDL cholesterol (HDL-C). As a secondary objective the effect of the various drinks on total cholesterol (TC), LDL cholesterol (LDL-C), Triglycerides (TG) and blood pressure (BP) was assessed. […] After a run-in period of 2 weeks the subjects consumed for 4 weeks daily (in the morning one hour before breakfast) 200 ml acidified dairy drink as in table 5, with added to that 1) none (control drink), 2) 5.9 g cocoa powder (Acticoa, Barry-Callebaut) containing about 500 mg polyphenols and 150 mg theobromine 3) about 850 mg synthetic theobromine (Fagron) and 4) 5.9 g cocoa powder containing 500 mg polyphenols and 150 mg theobromine plus added thereto about 850 mg synthetic theobromine (Fagron) (in total about 1 g theobromine). The synthetic theobromine used was: theobromine complying with European Pharmacopeia 5.7, as available from […], Belgium. For preparing the test products containing theobromine, theobromine was dissolved in a 1 M NaOH solution to create a theobromine stock solution, containing approximately 170 mg/ml of thebromine. The various drinks used in the trial have been made using the following processing: • mixing of the pectin with all of the sugar • dispersing the pectin/sugar mix with part of the demi water at 80° C. to prepare a pectin slurry • dissolving smp in the remainder of the demi water at a temperature of 40° C. • adding the cream • adding the xanthan gum under vigorous mixing for 15 minutes • adding the pectin slurry • adding sucralose • (depending on the drink: adding the cacao slowly under vigorous mixing) • (depending on the drink: adding the theobromine solution) • adding the sunflower oil • adding the flavours and colorants • acidifying the premix with lactic acid until pH 4.2 Inclusion criteria: generally healthy men and pre-menopausal women, age 40-70, with a 10-year risk of developing CHD<10%, not on active cholesterol-lowering or anti-hypertensive treatment and non-smoking. Details of the subject characteristics are set out in table 6. Venous blood samples were drawn from the antecubital vein in SST II advance BD tubes in fasting condition (morning, before breakfast) for blood lipid profile (HDL-C, LDL-C, total cholesterol (TC), triglycerides, HDL-C being herein high density lipoprotein cholesterol, and LDL-C herein being low density lipoprotein cholesterol). The blood samples were taken twice at baseline and were repeated twice after the end of the intervention period. All measurements were done with standard laboratory techniques. Serum lipid outcomes were done in the Intention to treat (ITT) and Per Protocol (PP) population. The statistical analysis was done according to a full 2×2 factorial design including interaction of theobromine and cocoa. Gender within treatment and baseline blood lipids were included in the model as covariates. A 2 sided p-value<0.05 was considered significant.

Wistar rats [2] = conditions: 700 mg/kg body weight; cited from earlier work
[3] = tested on: healthy males and females; test: Example 2: same intervention study, blood pressure; format: in vivo, humans
Experimental: In a randomized controlled intervention study with 153 healthy males and females the effect of drinks containing cocoa, added theobromine or a combination of cocoa and added theobromine was assessed on HDL cholesterol (HDL-C). As a secondary objective the effect of the various drinks on total cholesterol (TC), LDL cholesterol (LDL-C), Triglycerides (TG) and blood pressure (BP) was assessed.
After a run-in period of 2 weeks the subjects consumed for 4 weeks daily (in the morning one hour before breakfast) 200 ml acidified dairy drink as in table 5, with added to that 1) none (control drink), 2) 5.9 g cocoa powder (Acticoa, Barry-Callebaut) containing about 500 mg polyphenols and 150 mg theobromine 3) about 850 mg synthetic theobromine (Fagron) and 4) 5.9 g cocoa powder containing 500 mg polyphenols and 150 mg theobromine plus added thereto about 850 mg synthetic theobromine (Fagron) (in total about 1 g theobromine). The synthetic theobromine used was: theobromine complying with European Pharmacopeia 5.7, as available from Fagron, Waregem, Belgium.
Inclusion criteria: generally healthy men and pre-menopausal women, age 40-70, with a 10-year risk of developing CHD<10%, not on active cholesterol-lowering or anti-hypertensive treatment and non-smoking. Details of the subject characteristics are set out in table 6.
The statistical analysis was done according to a full 2×2 factorial design including interaction of theobromine and cocoa. Gender within treatment and baseline blood lipids were included in the model as covariates. A 2 sided p-value<0.05 was considered significant.

Wistar rats [4] = conditions: rats fed a diet supplemented with 0.3% of theobromine; cited from earlier work
[5] = after 4 weeks, ITT, baseline ratio and gender as covariables
[6] = fasting blood, after 4 weeks daily 200 ml drink, ITT, baseline and gender as covariables
[7] = pair-wise comparison, treatment A = Placebo, 4 weeks

## Cn1cnc2c1c(=O)[nH]c(=O)n2C [Theobromine, 2,6-dihydroxy-3,7-dimethylpurine]
[1]; 4 weeks
  HDL-C increase compared to placebo: ~10%
  Serum LDL-C decrease compared to placebo: about 5%
[1]; 4 weeks, compared to placebo
  Serum LDL-C decrease: 0.18 mmol/L
[1]; 4 weeks, main apoprotein found in HDL particles
  increase in ApoA1 concentrations: 0.11
[1]; after 4 weeks, ITT, baseline and gender as covariables
  Triglyceride, Mean: 1.05 mmol/L
[1]; [5]
  HDL-C/LDL-C ratio, Mean: 0.52
  HDL-C/non-HDL-C ratio, Mean: 0.43
[1]; fasting blood, after 4 weeks daily 200 ml drink, ITT n=143, baseline and gender as covariables
  Total cholesterol, Mean: 5.82 mmol/L
[1]; [6]
  HDL-C, Mean: 1.75 mmol/L
  LDL-C, Mean: 3.30 mmol/L
[1]; [7]
  HDL-C, Change (A − B): 0.159 mmol/L
  HDL-C/LDL_c ratio, Change (A − B): 0.12 and 0.117
  HDL-C/non-HDL-C ratio, Change (A − B): 0.13 and 0.126
  LDL-C, Change (A − B): -0.184 mmol/L
  Total cholesterol, Change (A − B): -0.038 mmol/L
  Triglycerides, Change (A − B): 0.018 mmol/L
[1]; pair-wise comparison, treatment A = Placebo, 4 weeks, listed as theobromine
  HDL-C, Change (A − B): 0.16 mmol/L
Wistar rats [2]
  HDL-cholesterol: elevated
  LDL-cholesterol: decreased
  total cholesterol: decreased
  triglycerides: decreased
[3]; 4 weeks, vs control
  effect on blood pressure: no significant effect
[3]; after 4 weeks, ITT, baseline DBP and gender as covariables
  DBP, Mean: 75.0 mm Hg
[3]; after 4 weeks, ITT, baseline SBP and gender as covariables
  SBP, Mean: 121.2 mm Hg
[3]; [7]
  DBP, Change (A − B): −0.20 mm Hg
  SBP, Change (A − B): 2.55 mm Hg
Wistar rats [4]
  Serum total cholesterol: significantly increased
